The values that follow come from ChEMBL document CHEMBL5380868, “Filling a nick in NIK: Extending the half-life of a NIK inhibitor through structure-based drug design” (Bioorg Med Chem Lett, 2023).

The structures appear in SMILES notation. Converted amounts (≈) assume the structure as drawn.

Data set [1] in a line: Unbound plasma clearance in iv dosed C57BL/6J mouse. Type of data set: ADME, organism-based. The following applies: in vivo.
Data set [2] is described as follows: Unbound plasma clearance in iv dosed Cynomolgus monkey. The format is ADME, organism-based, Macaca fascicularis. The note with it: in vivo.
Data set [3] is described as follows: Oral bioavailability in Cynomolgus monkey at 1 mg/kg. The format is ADME, organism-based, Macaca fascicularis. The note with it: in vivo.
Data set [4] has as its target T1, Mitogen-activated protein kinase kinase kinase 14 (Homo sapiens, UniProt Q99558). The data set is described as follows: Inhibition of NIK in HEK-293 cells assessed as inhibition of NIK-dependent NF-kappaB response element expression by firefly luciferase reporter gene based analysis. Type of data set: cell-based, HEK293. On the technique in general: In a reporter assay the amount or activity of a reporter protein is the signal.

The nature of data set [5]: Oral bioavailability in C57BL/6J mouse at 10 mg/kg. Type of data set: ADME, organism-based. The note with it: in vivo.
Data set [6] can be described thus: Half life in iv dosed C57BL/6J mouse. The format is ADME, organism-based. The following applies: in vivo.
In data set [7] the target is T1, Mitogen-activated protein kinase kinase kinase 14. The data set is described as follows: Inhibition of NIK in HUVEC cells assessed as inhibition of anti-[…]-stimulated p52 nuclear translocation. Type of data set: cell-based.
The target in data set [8] is Leucine-rich repeat serine/threonine-protein kinase 2 (Homo sapiens) (UniProt Q5S007). As to the kind of experiment: Inhibition of recombinant human LRRK2 at 1 uM relative to control.
Sequence of Leucine-rich repeat serine/threonine-protein kinase 2 (Homo sapiens) (Q5S007 whole entry): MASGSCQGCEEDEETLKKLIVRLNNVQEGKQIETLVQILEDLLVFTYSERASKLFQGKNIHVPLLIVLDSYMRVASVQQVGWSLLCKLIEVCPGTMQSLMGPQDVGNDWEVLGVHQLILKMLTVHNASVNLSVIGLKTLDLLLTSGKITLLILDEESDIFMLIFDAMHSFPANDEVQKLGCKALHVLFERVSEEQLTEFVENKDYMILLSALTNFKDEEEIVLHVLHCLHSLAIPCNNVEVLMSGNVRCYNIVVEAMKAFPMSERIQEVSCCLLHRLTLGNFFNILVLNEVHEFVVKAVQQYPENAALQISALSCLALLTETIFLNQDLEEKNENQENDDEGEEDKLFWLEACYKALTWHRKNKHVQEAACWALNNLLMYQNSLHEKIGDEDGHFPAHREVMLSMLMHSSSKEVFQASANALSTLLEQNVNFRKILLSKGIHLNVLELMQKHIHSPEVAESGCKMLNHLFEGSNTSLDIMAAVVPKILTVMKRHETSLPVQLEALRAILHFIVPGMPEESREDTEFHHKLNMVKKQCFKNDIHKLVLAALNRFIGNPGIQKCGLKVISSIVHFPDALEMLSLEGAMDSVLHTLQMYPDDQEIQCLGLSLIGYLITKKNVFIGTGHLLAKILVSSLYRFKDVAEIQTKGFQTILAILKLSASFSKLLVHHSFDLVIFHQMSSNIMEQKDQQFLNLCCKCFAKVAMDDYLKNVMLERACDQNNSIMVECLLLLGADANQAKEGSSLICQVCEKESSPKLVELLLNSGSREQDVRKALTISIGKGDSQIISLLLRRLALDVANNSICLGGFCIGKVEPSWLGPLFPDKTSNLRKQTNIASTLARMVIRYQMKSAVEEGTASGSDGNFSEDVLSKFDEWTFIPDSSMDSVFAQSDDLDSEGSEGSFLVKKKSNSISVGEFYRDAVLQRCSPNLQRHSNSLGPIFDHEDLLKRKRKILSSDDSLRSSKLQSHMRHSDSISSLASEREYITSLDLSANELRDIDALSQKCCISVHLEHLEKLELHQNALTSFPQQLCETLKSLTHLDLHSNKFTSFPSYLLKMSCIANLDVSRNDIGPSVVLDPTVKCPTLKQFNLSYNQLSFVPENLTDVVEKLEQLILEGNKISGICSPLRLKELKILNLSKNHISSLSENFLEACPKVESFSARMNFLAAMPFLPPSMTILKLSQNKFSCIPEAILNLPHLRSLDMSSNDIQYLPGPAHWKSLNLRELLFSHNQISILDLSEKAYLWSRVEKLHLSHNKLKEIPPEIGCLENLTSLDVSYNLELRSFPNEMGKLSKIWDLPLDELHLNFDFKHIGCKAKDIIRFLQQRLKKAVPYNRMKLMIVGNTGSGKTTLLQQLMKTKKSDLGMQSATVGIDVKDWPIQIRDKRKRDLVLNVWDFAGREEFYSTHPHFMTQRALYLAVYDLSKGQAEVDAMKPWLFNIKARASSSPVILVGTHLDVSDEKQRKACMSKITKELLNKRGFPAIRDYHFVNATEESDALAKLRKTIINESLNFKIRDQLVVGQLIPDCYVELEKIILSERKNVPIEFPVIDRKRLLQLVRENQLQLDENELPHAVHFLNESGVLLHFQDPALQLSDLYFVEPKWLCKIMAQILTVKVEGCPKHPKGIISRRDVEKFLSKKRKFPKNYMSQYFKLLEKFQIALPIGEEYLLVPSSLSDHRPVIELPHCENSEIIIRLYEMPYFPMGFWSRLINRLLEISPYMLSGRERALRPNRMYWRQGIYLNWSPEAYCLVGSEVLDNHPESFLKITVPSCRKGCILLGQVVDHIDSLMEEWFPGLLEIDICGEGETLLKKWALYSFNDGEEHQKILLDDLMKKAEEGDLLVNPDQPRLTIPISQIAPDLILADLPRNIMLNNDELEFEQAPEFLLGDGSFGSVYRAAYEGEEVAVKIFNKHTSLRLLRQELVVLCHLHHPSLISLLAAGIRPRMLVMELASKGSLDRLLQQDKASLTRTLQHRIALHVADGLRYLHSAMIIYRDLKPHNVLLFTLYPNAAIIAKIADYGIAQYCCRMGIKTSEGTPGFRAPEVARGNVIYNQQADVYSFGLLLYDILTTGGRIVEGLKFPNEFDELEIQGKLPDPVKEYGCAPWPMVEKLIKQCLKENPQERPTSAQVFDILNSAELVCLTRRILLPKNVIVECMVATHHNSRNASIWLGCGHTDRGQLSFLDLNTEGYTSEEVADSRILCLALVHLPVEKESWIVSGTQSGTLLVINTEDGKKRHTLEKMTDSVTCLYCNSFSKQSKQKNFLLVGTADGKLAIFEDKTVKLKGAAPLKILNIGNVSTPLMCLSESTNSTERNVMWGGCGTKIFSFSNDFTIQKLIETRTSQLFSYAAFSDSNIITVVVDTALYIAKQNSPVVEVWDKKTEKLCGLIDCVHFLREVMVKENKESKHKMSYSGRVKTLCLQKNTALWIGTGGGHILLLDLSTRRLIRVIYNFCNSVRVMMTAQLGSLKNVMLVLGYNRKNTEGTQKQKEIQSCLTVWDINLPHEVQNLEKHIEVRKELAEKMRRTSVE
Data set [9] in a line: Volume of distribution in Sprague-Dawley rat. Type of data set: ADME. The note with it: in vivo.
Data set [10] can be described thus: Hepatic clearance in human hepatocytes. Type of data set: ADME, cell-based, Hepatocyte.
Data set [11] is described as follows: Inhibition of Herpes simplex virus thymidine kinase in HEK293 cells by Renilla luciferase based assay. The format is cell-based. The following applies: Herpesviridae sp.
Data set [12] is described as follows: Plasma clearance in iv dosed C57BL/6J mouse. The format is ADME, organism-based.
The nature of data set [13]: Hepatic clearance in dog liver microsomes. The format is ADME, Canis lupus familiaris, Microsome. (In general: Liver microsomes are a subcellular fraction often used to study metabolism.)
A short description of data set [14]: Half life in iv dosed Sprague-Dawley rat. Type of data set: ADME, organism-based. The following applies: in vivo.
The nature of data set [15]: Hepatic clearance in rat liver microsomes. Type of data set: ADME, Microsome.
Data set [16] can be described thus: Unbound plasma clearance in iv dosed Sprague-Dawley rat. The format is ADME, organism-based. The following applies: in vivo.
The nature of data set [17]: Half life in iv dosed Cynomolgus monkey. The following applies: in vivo. Type of data set: ADME, organism-based, Macaca fascicularis.
Data set [18] can be described thus: Hepatic clearance in mouse hepatocytes. The format is ADME, cell-based, Hepatocyte.
The nature of data set [19]: Hepatic clearance in dog hepatocytes. The format is ADME, cell-based, Canis lupus familiaris, Hepatocyte.
Data set [20] can be described thus: Oral bioavailability in Sprague-Dawley rat at 5 mg/kg. Type of data set: ADME, organism-based. The note with it: in vivo.
A short description of data set [21]: Plasma clearance in iv dosed Cynomolgus monkey. Type of data set: ADME, organism-based, Macaca fascicularis. The following applies: in vivo.
A short description of data set [22]: Volume of distribution in non-naive Beagle dog. Type of data set: ADME, Canis lupus familiaris. The following applies: in vivo.
Data set [23] is described as follows: Oral bioavailability in non-naive Beagle dog at 1 mg/kg. The format is ADME, organism-based, Canis lupus familiaris. The note with it: in vivo.
Data set [24] can be described thus: Kinetic solubility of compound in PBS at pH 7.4. The following applies: read-out: Kinetic_solubility. The format is physicochemical.
Data set [25] can be described thus: Hepatic clearance in cynomolgus monkey hepatocytes. Type of data set: ADME, cell-based, Macaca fascicularis, Hepatocyte.
Data set [26] is described as follows: Volume of distribution in C57BL/6J mouse. The note with it: in vivo. The format is ADME.
The subject of the next data set is HEK293. The data set is described as follows: Inhibition of Herpes simplex virus thymidine kinase in HEK293 cells assessed as maximal inhibition by Renilla luciferase based assay relative to control. The following applies: Herpesviridae sp. Type of data set: cell-based.
Data set [27] in a line: Plasma clearance in iv dosed non-naive Beagle dog. The format is ADME, organism-based, Canis lupus familiaris.
Data set [28] can be described thus: Hepatic clearance in rat hepatocytes. Type of data set: ADME, cell-based, Hepatocyte.
For data set [29], the target named is T1, Mitogen-activated protein kinase kinase kinase 14. The data set is described as follows: Inhibition of NIK (unknown origin) catalyzed ATP hydrolysis by fluorescence polarization method. Background: Polarisation of emitted light reports the rotation of a fluorescent probe.
The nature of data set [30]: Lipophilicity, logD of the compound at pH 7.4 by shake flask method based LC-MS analysis. The format is physicochemical. The following applies: buffer.
Data set [31] deals with T1, Mitogen-activated protein kinase kinase kinase 14. The data set is described as follows: Inhibition of NIK in human primary B cell assessed as inhibition of CD40L-stimulated nuclear translocation of p52 in cell based assay.
Data set [32] is described as follows: Volume of distribution in Cynomolgus monkey. The format is ADME, Macaca fascicularis. The following applies: in vivo.
Data set [33] in a line: Hepatic clearance in cynomolgus monkey liver microsomes. Type of data set: ADME, Macaca fascicularis, Microsome.
A short description of data set [34]: Half life in iv dosed non-naive Beagle dog. Type of data set: ADME, organism-based, Canis lupus familiaris. The following applies: in vivo.
The target of data set [35] is Mitogen-activated protein kinase kinase kinase kinase 5 (Homo sapiens) (UniProt Q9Y4K4). As to the kind of experiment: Inhibition of recombinant human KHS1 at 1 uM relative to control.
For data set [36], the target named is Serine/threonine-protein kinase D1 (Homo sapiens) (UniProt Q15139). The data set is described as follows: Inhibition of recombinant human PKD1 at 1 uM relative to control.
Sequence of Serine/threonine-protein kinase D1 (Homo sapiens) (Q15139 whole entry, looked up): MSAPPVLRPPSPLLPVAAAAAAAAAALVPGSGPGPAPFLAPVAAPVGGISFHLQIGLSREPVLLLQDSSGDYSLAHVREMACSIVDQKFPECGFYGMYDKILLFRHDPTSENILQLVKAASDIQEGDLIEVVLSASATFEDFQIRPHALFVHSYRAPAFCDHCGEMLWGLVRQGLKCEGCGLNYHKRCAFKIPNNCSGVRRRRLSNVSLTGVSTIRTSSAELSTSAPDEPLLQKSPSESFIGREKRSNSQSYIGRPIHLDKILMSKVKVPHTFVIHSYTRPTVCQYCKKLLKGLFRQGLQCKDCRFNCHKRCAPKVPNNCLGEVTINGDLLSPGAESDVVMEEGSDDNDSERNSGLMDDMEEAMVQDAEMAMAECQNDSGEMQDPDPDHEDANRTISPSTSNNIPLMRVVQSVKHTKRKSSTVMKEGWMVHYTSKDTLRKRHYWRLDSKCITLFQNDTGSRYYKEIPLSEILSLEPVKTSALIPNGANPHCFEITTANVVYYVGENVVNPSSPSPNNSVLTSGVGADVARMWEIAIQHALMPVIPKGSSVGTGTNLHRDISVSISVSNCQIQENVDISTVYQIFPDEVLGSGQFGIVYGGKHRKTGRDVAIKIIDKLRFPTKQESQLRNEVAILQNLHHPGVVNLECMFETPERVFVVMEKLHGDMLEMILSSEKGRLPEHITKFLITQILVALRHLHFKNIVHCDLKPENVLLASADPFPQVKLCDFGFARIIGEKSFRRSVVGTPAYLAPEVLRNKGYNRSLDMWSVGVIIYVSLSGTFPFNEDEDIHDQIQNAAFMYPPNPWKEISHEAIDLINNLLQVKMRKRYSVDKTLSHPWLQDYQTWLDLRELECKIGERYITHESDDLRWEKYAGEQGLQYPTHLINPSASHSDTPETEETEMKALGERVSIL
Data set [37] is described as follows: Hepatic clearance in mouse liver microsomes. The format is ADME, Microsome.
Data set [38] can be described thus: Unbound plasma clearance in iv dosed non-naive Beagle dog. Type of data set: ADME, organism-based, Canis lupus familiaris. The following applies: in vivo.
Data set [39] can be described thus: Hepatic clearance in human liver microsomes. Type of data set: ADME, Microsome.
Data set [40] in a line: Plasma clearance in iv dosed Sprague-Dawley rat. The format is ADME, organism-based.
Data set [41] can be described thus: Oral bioavailability in C57BL/6J mouse at 50 mg/kg. The following applies: in vivo. Type of data set: ADME, organism-based.
The nature of data set [42]: Oral bioavailability in Cynomolgus monkey at 5 mg/kg. The following applies: in vivo. The format is ADME, organism-based, Macaca fascicularis.
Data set [43] is described as follows: Oral bioavailability in non-naive Beagle dog at 5 mg/kg. Type of data set: ADME, organism-based, Canis lupus familiaris. The note with it: in vivo.

T1 sequence (Q99558 whole entry): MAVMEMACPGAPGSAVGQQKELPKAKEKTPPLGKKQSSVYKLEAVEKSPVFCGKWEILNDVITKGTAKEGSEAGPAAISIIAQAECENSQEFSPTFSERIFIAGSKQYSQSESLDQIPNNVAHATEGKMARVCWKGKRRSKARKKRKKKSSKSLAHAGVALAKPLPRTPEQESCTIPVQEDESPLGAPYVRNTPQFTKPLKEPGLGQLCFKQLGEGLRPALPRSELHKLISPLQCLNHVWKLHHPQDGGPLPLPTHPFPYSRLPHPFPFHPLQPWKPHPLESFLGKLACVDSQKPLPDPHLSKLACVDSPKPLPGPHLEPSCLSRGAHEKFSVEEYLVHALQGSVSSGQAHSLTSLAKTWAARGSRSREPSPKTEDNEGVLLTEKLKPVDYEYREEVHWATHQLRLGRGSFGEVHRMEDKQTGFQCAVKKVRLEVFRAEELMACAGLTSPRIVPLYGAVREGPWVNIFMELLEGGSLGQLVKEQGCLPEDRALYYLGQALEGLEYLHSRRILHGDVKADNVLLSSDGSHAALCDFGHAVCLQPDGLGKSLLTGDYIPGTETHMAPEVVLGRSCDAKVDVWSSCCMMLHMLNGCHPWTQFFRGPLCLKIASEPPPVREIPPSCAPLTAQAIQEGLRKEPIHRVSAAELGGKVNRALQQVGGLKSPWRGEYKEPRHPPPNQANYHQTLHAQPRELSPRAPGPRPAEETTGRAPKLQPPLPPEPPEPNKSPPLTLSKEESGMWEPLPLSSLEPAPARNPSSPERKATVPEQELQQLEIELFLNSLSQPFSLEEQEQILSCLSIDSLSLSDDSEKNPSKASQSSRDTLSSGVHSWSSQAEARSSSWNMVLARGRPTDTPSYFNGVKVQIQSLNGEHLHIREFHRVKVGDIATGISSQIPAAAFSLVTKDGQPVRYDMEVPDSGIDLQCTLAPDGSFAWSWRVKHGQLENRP

Turning to `CN1C(=O)[C@](O)(C#Cc2cccc(-n3nc(C(N)=O)c4cccnc43)c2)[C@H]2C[C@H]21`, the CL free in data set [1] stood at 367 mL/min/kg; in data set [2] it was 95 mL/min/kg; in data set [16] it was 656 mL/min/kg; in data set [38], 68 mL/min/kg. The bioavailability (in general, the share of a dose that reaches the circulation, judged against a reference dose that is usually intravenous) in data set [3] was 65%; in data set [5] it was 49%; in data set [20] it was above 100%; in data set [23], 78%. Further, the IC50 – broadly, the concentration at which inhibition is half-maximal – in data set [4] was 53 nM; in [7], 55 nM; in data set [11] it was above 2000 nM; in data set [29], 2 nM; in data set [31], 330 nM. The half-life (commonly the time needed for the level to fall by half in the phase considered) is 1.5 h in data set [6], 0.7 h in [14], 4.9 h in data set [17] and 4.8 h in data set [34]. Further, the inhibition (in general, the relative decrease from the control value, in per cent) in data set [8] was 6%; in data set [35], 89%; in data set [36], 79%. Moreover, the Vd (in general, the apparent volume that relates the amount in the body to the concentration in plasma or blood) turned out to be 2.6 L/kg in data set [9], 1.2 L/kg in data set [22], 1.1 L/kg in data set [26] and 2 L/kg in data set [32]. For the same compound, the CLhep predicted in data set [10] was below 6.2 mL/min/kg; in data set [13] it was 14 mL/min/kg; in data set [15] it was 18 mL/min/kg; in data set [18], below 21 mL/min/kg; in data set [19], below 7.8 mL/min/kg; in [28] it was below 10 mL/min/kg. In addition, the figures for the CLhep predicted in data set [33], in data set [37] and in [39] were 15 mL/min/kg, 29 mL/min/kg and 5.8 mL/min/kg, respectively. Besides, the clearance (usually the volume of plasma or blood freed of the substance per unit of time) in data set [12] came out at 11 mL/min/kg; in data set [21], 6.7 mL/min/kg; in data set [27], 7.1 mL/min/kg; in data set [40], 42 mL/min/kg. In addition, the solubility kinetic in [24] worked out at 92 µM (≈ 35.6 µg/mL). Besides, the CLH in [25] is below 8.8 mL/min/kg. In the data set with HEK293, the Imax stood at 6%. Moreover, the logD (in general, lipophilicity at a set pH, counting ionised and neutral species) in data set [30] turned out to be 1.8.

As for `COc1cc(C(N)=O)nc(-c2cccc(C#C[C@]3(O)CCN(C)C3=O)c2)c1`, in data set [8], the inhibition amounted to 82%.

Turning to `CN1CC[C@@](O)(C#Cc2cccc(-n3nc(C(N)=O)c4cccnc43)c2)C1=O`, the bioavailability in data set [41] is 72%; in data set [20], 62%; in [42], above 100%; in data set [43] it was 44%. Also, the inhibition in data set [8] was 59%. The Vd in data set [9] stood at 2.9 L/kg; in data set [22] it was 0.8 L/kg; in data set [26] it was 0.5 L/kg; in data set [32], 1.1 L/kg. Further, the half-inhibitory concentration (IC50) in [11] is above 2000 nM. The solubility kinetic in data set [24] came to 122 µM (≈ 45.8 µg/mL). For the same compound, the Imax in the data set with HEK293 turned out to be 7%.
